According to patent US20260125375A1 (Pfizer Inc., priority 2022, published 2026):

Assays:
CBL-B (residues 36-427) = molecular target: T1, CBL-B (residues 36-427) (Homo sapiens, UniProt Q13191); assay: Ligand Displacement Assay (LDA), HTRF competitive binding against BODIPY-labeled fluorescent tracer, CBL-B; details: geometric mean of the number of tests, read-out: CBL-B Ki (nM) GMean
T1 construct: Purified CBL-B (residues 36-427) and C-CBL (residues 46-435) proteins from baculovirus-infected insect cells; made in house; host or cells: baculovirus-infected insect cells
Source text: (§1) Ligand Displacement Assay (LDA)
(§2) The purpose of the homogeneous time-resolved fluorescence energy transfer (HTRF) ligand displacement assay is to determine whether the compounds of the disclosure are competitive with a BODIPY-labeled compound; “fluorescent tracer” aka [6-cyclopropyl-5-(17-{5-[(3,5-dimethyl-2H-pyrrol-2-ylidene-KN)methyl]-1H-pyrrol-2-yl-κN}-15-oxo-5,8,11-trioxa-2,14-diazaheptadecan-1-yl)-N-(3-{3-[(4-methyl-4H-1,2,4-triazol-3-yl)methyl]oxetan-3-yl}phenyl)pyridine-2-carboxamidato](difluorido)boron and to assess CBL-B binding selectivity over C-CBL. The synthesis of this fluorescent tracer compound is described below.
(§3) Purified CBL-B (residues 36-427) and C-CBL (residues 46-435) proteins from baculovirus-infected insect cells were biotin labeled on their amino-terminal AviTag™ epitopes by the E. coli biotin ligase BirA to bind terbium-labeled streptavidin (SA-Tb). After optimizing the assays and determining KD values for the fluorescent tracer to CBL-B and C-CBL, compounds were tested using three-fold serial dilutions in duplicate from a top concentration of […] with a final DMSO concentration of 2%. […] The Ki (nM) values reported are the geometric means (GMean) of the number of tests conducted.

WT CBL-B (36-427) = molecular target: T2, WT CBL-B (36-427) (Homo sapiens, UniProt Q13191); assay: Surface Plasmon Resonance (SPR) assay, binding affinity and kinetics, CBL-B; details: SPR at 10° C., biotinylated WT CBL-B (36-427) on streptavidin chip; geometric mean; read-out: CBL-B SPR Kd (nM) GMean
T2 construct: N-terminal biotinylated WT CBL-B (36-427) and C-CBL (46-435) were captured on a streptavidin (SA) coated sensor chip
Procedure: (§4) Surface Plasmon Resonance (SPR) Assay
(§5) The purpose of the SPR assay is to evaluate the binding affinity and kinetics of the compound of disclosure binding to CBL-B and C-CBL.
(§6) The binding affinity and kinetics of compound binding to CBL-B and C-CBL were measured by Surface Plasmon Resonance (SPR) using either Biacore S200, 8K or 8K+ (Cytiva, Marlborough, MA) instruments. N-terminal biotinylated WT CBL-B (36-427) and C-CBL (46-435) were captured on a streptavidin (SA) coated sensor chip to achieve approximately 5000 to 6000 RUs of surface density. Un-functionalized SA surfaces with no immobilized protein served as reference for binding kinetic analysis. All the samples were prepared in buffer consisting of 10 mM HEPES, 150 mM NaCl, 0.05% Tween-20, 5% glycerol, […], 2% DMSO, pH 7.2. The same buffer was used as the running buffer during the experiments. Compound binding kinetics were measured in either multi-cycle or single-cycle kinetic format.
(§7) Multi-cycle kinetic analysis (MCK): A two-fold, 10-point serial dilution of test compounds was set-up in a 96-well microplate (Greiner; Cat #650101) with a top concentration of either 10 μM or 100 μM. Binding kinetics was measured at 10° C. by injecting serial dilution of compounds onto both reference and CBL immobilized channels at a flow rate of 100 μL/min and association time of 90 seconds. Compound dissociation was monitored for >400 seconds during each cycle. No additional regeneration was used. DMSO calibration curve was obtained before and after compound analysis by injecting 0-4% of DMSO in assay buffer. A suitable compound with known affinity and kinetics was tested once in every experiment as a positive control to assess activity of the captured proteins on the surface.
(§8) Single-cycle kinetic analysis (SCK): A 3-fold, 6-point serial dilution of compounds was set-up in a deep 96-well microplate (Greiner Bio; Cat #780201) with the highest concentration of 1 μM (concentration range: […]). Binding kinetics was measured at 10° C. by injecting serial dilutions of compounds in increasing order onto reference as well as CBL immobilized channels at a flow rate of 100 μL/min and association time of 120 seconds. Compound dissociation was monitored for >5400 seconds. Two buffer blanks were also run in a single-cycle kinetics format before the compound run for double referencing. No additional regeneration was used. DMSO calibration curve was obtained before and after compound analysis by injecting 0-4% of DMSO in the assay buffer. A suitable compound with known affinity and kinetics was tested once in every experiment as a positive control to assess activity of the captured proteins on the surface.

C-CBL (residues 46-435) = molecular target: T3, C-CBL (residues 46-435) (Homo sapiens, UniProt P22681); assay: Ligand Displacement Assay (LDA), HTRF competitive binding against BODIPY-labeled fluorescent tracer, C-CBL; details: geometric mean of the number of tests, read-out: C-CBL Ki (nM) GMean
T3 construct: Purified CBL-B (residues 36-427) and C-CBL (residues 46-435) proteins from baculovirus-infected insect cells; made in house; host or cells: baculovirus-infected insect cells
T3 sequence (P22681 46-435): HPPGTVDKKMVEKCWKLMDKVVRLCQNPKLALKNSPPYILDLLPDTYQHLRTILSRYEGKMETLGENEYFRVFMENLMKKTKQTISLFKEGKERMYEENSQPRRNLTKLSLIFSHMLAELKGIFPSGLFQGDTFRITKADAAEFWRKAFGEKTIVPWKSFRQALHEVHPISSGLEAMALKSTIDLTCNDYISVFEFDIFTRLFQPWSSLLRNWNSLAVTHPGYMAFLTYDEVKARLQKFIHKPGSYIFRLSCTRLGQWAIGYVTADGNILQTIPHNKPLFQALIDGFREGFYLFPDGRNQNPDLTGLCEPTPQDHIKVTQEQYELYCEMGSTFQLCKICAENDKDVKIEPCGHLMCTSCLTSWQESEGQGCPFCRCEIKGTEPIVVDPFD
Source text: as §1, §2, §3

C-CBL (46-435) = molecular target: T4, C-CBL (46-435) (Homo sapiens, UniProt P22681); assay: Surface Plasmon Resonance (SPR) assay, binding affinity and kinetics, C-CBL; details: SPR at 10° C., biotinylated C-CBL (46-435) on streptavidin chip; geometric mean; read-out: C-CBL SPR Kd (nM) GMean
T4 construct: N-terminal biotinylated WT CBL-B (36-427) and C-CBL (46-435) were captured on a streptavidin (SA) coated sensor chip
T4 sequence (P22681 46-435): T3 sequence (P22681 46-435)
Procedure: as §4, §5, §6, §7, §8

| Structure (SMILES) | Ki (CBL-B (residues 36-427)) [nM] | Kd (WT CBL-B (36-427)) [nM] | Ki (C-CBL (residues 46-435)) [nM] | Kd (C-CBL (46-435)) [nM] |
| --- | --- | --- | --- | --- |
| C[C@H](c1nc(C(F)(F)F)cc2c(-c3cccc(C4(Cc5nncn5C)COC4)c3)n[nH]c12)N(C)C (single isomer, unassigned) [Example D40] | 23.9 | 5.5 | 98.1 | 88.5 |
| C[C@@H]1CN(Cc2nc(C(F)(F)F)cc3c(-c4cccc(C5(Cc6nncn6C)COC5)c4)n[nH]c23)CCO1 [Example C72, 7-{[(2R)-2-methylmorpholin-4-yl]methyl}-3-(3-{3-[(4-methyl-4H-1,2,4-triazol-3-yl)methyl]oxetan-3-yl}phenyl)-5-(trifluoromethyl)-1H-pyrazolo[3,4-c]pyridine] | 18.6 | 2.3 | 83.3 | 63.1 |
| C[C@@H](c1nc(C(F)(F)F)cc2c(-c3cccc(C4(Cc5nncn5C)COC4)c3)n[nH]c12)N(C)C (single isomer, unassigned) [Example D39] | 42.1 | 14.9 | 229 | 164 |
| Cn1cnnc1[C@@H](c1cccc(-c2n[nH]c3c(CN4CCCC4)nc(C(F)(F)F)cc23)c1)C1CCC1 [Example D94] | 29.2 | 5.5 | 192 | 163 |
| CN1CCC(Oc2nc(C(F)(F)F)cc3c(-c4cccc(C5(Cc6nncn6C)COC5)c4)n[nH]c23)C1 (stereo in doubt) [Example J2, 7-{[(3S)-1-methylpyrrolidin-3-yl]oxy}-3-(3-{3-[(4-methyl-4H-1,2,4-triazol-3-yl)methyl]oxetan-3-yl}phenyl)-5-(trifluoromethyl)-1H-pyrazolo[3,4-c]pyridine] | 19.1 | 4.8 | 76.6 | 37.6 |
| CC(C)NCc1nc(C(F)(F)F)cc2c(-c3cccc(C4(Cc5nncn5C)COC4)c3)n[nH]c12 [Example C53, N-{[3-(3-{3-[(4-methyl-4H-1,2,4-triazol-3-yl)methyl]oxetan-3-yl}phenyl)-5-(trifluoromethyl)-1H-pyrazolo[3,4-c]pyridin-7-yl]methyl}propan-2-amine] | 66.6 | 61.8 | 312 | 747 |
| CC(=O)NCC(C)c1nc(C(F)(F)F)cc2c(-c3cccc([C@H](c4nncn4C)C4CCC4)c3)n[nH]c12 (single isomer, unassigned) [Example M5] | 52.5 | 14.2 | 527 | 741 |
| CN1CC[C@H](Oc2nc(C(F)(F)F)cc3c(-c4cccc(C5(Cc6nncn6C)COC5)c4)n[nH]c23)C1 [Example J1, 7-{[(3S)-1-methylpyrrolidin-3-yl]oxy}-3-(3-{3-[(4-methyl-4H-1,2,4-triazol-3-yl)methyl]oxetan-3-yl}phenyl)-5-(trifluoromethyl)-1H-pyrazolo[3,4-c]pyridine] | 13.5 | 4.3 | 58.1 | 36.7 |
| CN1CC[C@@H](N(C)c2nc(C(F)(F)F)cc3c(-c4cccc([C@H](c5nncn5C)C5CCC5)c4)n[nH]c23)C1 [Example J11, 3-{3-[(R)-cyclobutyl(4-methyl-4H-1,2,4-triazol-3-yl)methyl]phenyl}-N-methyl-N-[(3R)-1-methylpyrrolidin-3-yl]-5-(trifluoromethyl)-1H-pyrazolo[3,4-c]pyridin-7-amine] | 41.6 | 24 | 275 | 393 |
| Cn1cnnc1CC1(c2cccc(-c3n[nH]c4c(CN5C[C@H](F)[C@@H](F)C5)nc(C(F)(F)F)cc34)c2)COC1 [Example C68, 7-{[(3S,4S)-3,4-difluoropyrrolidin-1-yl]methyl}-3-(3-{3-[(4-methyl-4H-1,2,4-triazol-3-yl)methyl]oxetan-3-yl}phenyl)-5-(trifluoromethyl)-1H-pyrazolo[3,4-c]pyridine] | 24.8 | 10.7 | 124 | 122 |
| C[C@@H](c1nc(C(F)(F)F)cc2c(-c3cccc([C@H](c4nncn4C)C4CCC4)c3)n[nH]c12)N1CCNC(=O)C1 (single isomer, unassigned) [Example D88] | 3.9 | 5.7 | 35.2 | 34.1 |
| Cn1cnnc1CC1(c2cccc(-c3n[nH]c4ccc(Cl)cc34)c2)COC1 [Example B7, 5-chloro-3-(3-{3-[(4-methyl-4H-1,2,4-triazol-3-yl)methyl]oxetan-3-yl}phenyl)-1H-indazole] | 25.1 | 7.2 | 150 | 108 |
| Cn1cnnc1[C@@H](c1cccc(-c2n[nH]c3c(CN4CCOCC4)nc(C(F)(F)F)cc23)c1)C1CCC1 [Example D96] | 41.9 | 5.5 | 377 | 120 |
| CCNCc1nc(C(F)(F)F)cc2c(-c3cccc(C4(Cc5nncn5C)COC4)c3)n[nH]c12 [Example C56, N-{[3-(3-{3-[(4-methyl-4H-1,2,4-triazol-3-yl)methyl]oxetan-3-yl}phenyl)-5-(trifluoromethyl)-1H-pyrazolo[3,4-c]pyridin-7-yl]methyl}ethanamine] | 43.6 | 11 | 201 | 150 |
| CN(C)c1nc(C(F)(F)F)cc2c(-c3cccc(C4(Cc5nncn5C)COC4)c3)n[nH]c12 [Example J9, N,N-dimethyl-3-(3-{3-[(4-methyl-4H-1,2,4-triazol-3-yl)methyl]oxetan-3-yl}phenyl)-5-(trifluoromethyl)-1H-pyrazolo[3,4-c]pyridin-7-amine] | 92.2 | 30.1 | 228 | 244 |
| Cn1cnnc1CC1(c2cccc(-c3n[nH]c4cnc(C5CC5)cc34)c2)COC1 [Example B4, 5-cyclopropyl-3-(3-{3-[(4-methyl-4H-1,2,4-triazol-3-yl)methyl]oxetan-3-yl}phenyl)-1H-pyrazolo[3,4-c]pyridine] | 73.9 | 58.7 | 254 | 578 |
| C[C@@H](c1nc(C(F)(F)F)cc2c(-c3cccc(C4(Cc5nncn5C)COC4)c3)n[nH]c12)N1CC(F)(F)C1 (single isomer, unassigned) [Example D45] | 19.9 | 5.2 | 80.3 | 83.9 |
